According to EP1037886B1, “TRIAZINE ANGIOGENESIS INHIBITORS” (Abbott Laboratories, priority 1997, dated 1999):

Test system: Human Microvascular Endothelial Cells (HMVEC)
Assay: Endothelial cell migration assay (bFGF induced, modified Boyden chamber)
Type: cell-based
Details: 600 nM test substance, 4 hours at 37 °C, percent inhibition of migration compared to a positive control
Procedure: The endothelial cell migration assay was performed essentially as described by Polverini, P.J. et al., Methods Enzymol, 198: 440-450 (1991). Briefly, Human Microvascular Endothelial Cells (HMVEC) were starved overnight in DMEM (Dulbecco's Modified Eagle Medium) containing 0.1% bovine serum albumin (BSA). Cells were then harvested with trypsin and resuspended in DMEM with 0.1% BSA at a concentration of 1.5 x 10^6 cells/mL. Cells were added to the bottom of a 48-well modified Boyden chamber (Nucleopore Corporation, Cabin John, MD). The chamber was assembled and inverted, and cells were allowed to attach for 2 hours at 37 °C to polycarbonate chemotaxis membranes (5 µm pore size) that had been soaked in 0.1% gelatin overnight and dried. The chamber was then reinverted and basic fibroblast growth factor (bFGF) and test substances were added to the wells of the upper chamber (to a total volume of 50 µL); the apparatus was then incubated for 4 hours at 37 °C. Membranes were recovered, fixed and stained (DiffQuick, Fisher Scientific, Pittsburgh, PA) and the number of cells that had migrated to the upper chamber per 10 high power fields were counted. Background migration to DMEM + 0.1% BSA was subtracted and the data reported as the number of cells migrated per 10 high power fields (400X) or when results from multiple experiments were combined, as the percent inhibition of migration compared to a positive control.

Row | SMILES | % inhibition at (nM)
1 | Nc1nc(N)nc(C23CC4CC(CC(C4)C2)C3)n1 [Example 52, 6-(tricyclo[3.3.1.1^3.7]decan-1-yl)-1,3,5-triazine-2,4-diamine] | 100 (600) %

Same assay, conditions: Homo sapiens, 200 nM test substance, 4 hours at 37 °C, percent inhibition of migration compared to a positive control

Row | SMILES | inhibition at 0.2 µM
2 | Nc1nc(N)nc(C2CC3CCC2C3)n1 (stereo not drawn) [Example 65, 6-(bicyclo[2.2.1]hept-2-yl)-1,3,5-triazine-2,4-diamine] | 32%

Same assay, conditions: Homo sapiens, 500 nM test substance, 4 hours at 37 °C, percent inhibition of migration compared to a positive control

Row | SMILES | inhibition at 0.5 µM
3 | Nc1nc(N)nc(-c2ccc(Cl)nc2)n1 [Example 69, 6-(6-chloro-3-pyridinyl)-1,3,5-triazine-2,4-diamine] | 39%
4 | Nc1nc(N)nc(C2CCN(C(=O)c3ccccc3)CC2)n1 [Example 74, 6-(1-benzoyl-4-piperidinyl)-1,3,5-triazine-2,4-diamine] | 82%
5 | CC(=O)Nc1nc(N)nc(-c2ccc(S(=O)(=O)c3ccccc3)cc2)n1 [Example 77, N-acetyl-6-[4-(phenylsulfonyl)phenyl]-1,3,5-triazine-2,4-diamine] | 50%
6 | Cc1ccc(-c2nc(N)nc(N)n2)cn1 [Example 68, 6-(6-methyl-3-pyridinyl)-1,3,5-triazine-2,4-diamine] | 73%
7 | Nc1nc(N)nc(C2CCN(Cc3ccccc3)CC2)n1 [Example 75, 6-[1-(phenylmethyl)-4-piperidinyl]-1,3,5-triazine-2,4-diamine] | 16%
8 | CNc1nc(NC)nc(-c2ccc(-c3ccccc3)cc2)n1 [Example 63, 6-[1,1'-biphenyl]-4-yl-N,N'-dimethyl-1,3,5-triazine-2,4-diamine] | 79%
9 | CC(=O)Nc1nc(NC(C)=O)nc(-c2ccc(S(=O)(=O)c3ccccc3)cc2)n1 [Example 76, N,N'-diacetyl-6-[4-(phenylsulfonyl)phenyl]-1,3,5-triazine-2,4-diamine] | 33%

Same assay, conditions: Homo sapiens, 600 nM test substance, 4 hours at 37 °C, percent inhibition of migration compared to a positive control

Row | SMILES | inhibition at 0.6 µM
10 | Nc1nc(N)nc([C@H]2CC[C@H](c3ccccc3)CC2)n1 [Example 3, trans-6-(4-phenylcyclohexyl)-1,3,5-triazine-2,4-diamine] | 100%
11 | Nc1nc(N)nc(-c2nccc3ccccc23)n1 [Example 53, 6-(1-isoquinolinyl)-1,3,5-triazine-2,4-diamine] | 85%
12 | Nc1nc(N)nc(-c2cccc(-n3cccc3)c2)n1 [Example 4, 6-[3-(1H-pyrrol-1-yl)phenyl]-1,3,5-triazine-2,4-diamine] | 62%
13 | Nc1nc(N)nc(-c2cnccn2)n1 [Example 60, 6-pyrazinyl-1,3,5-triazine-2,4-diamine] | 100%
14 | Nc1nc(N)nc(-c2ccc(Oc3ccccc3)cc2)n1 [Example 9, 6-(4-phenoxyphenyl)-1,3,5-triazine-2,4-diamine] | 29%
15 | Nc1nc(N)nc(Cc2cc3ccccc3s2)n1 [Example 49, 6-(benzo[b]thien-2-ylmethyl)-1,3,5-triazine-2,4-diamine] | 14%
16 | Nc1nc(N)nc(-c2cc(Cl)ccc2Cl)n1 [Irsogladine, reference compound] | 53%
17 | Nc1nc(N)nc(-c2ccc(S(=O)(=O)c3ccccc3)cc2)n1 [Example 58, 6-[4-(phenylsulfonyl)phenyl]-1,3,5-triazine-2,4-diamine] | 100%
18 | Nc1nc(N)nc(-c2ccc3c(c2)OCCO3)n1 [Example 55, 6-(2,3-dihydro-1,4-benzodioxin-6-yl)-1,3,5-triazine-2,4-diamine] | 84%
19 | Nc1nc(N)nc(-c2ccc(NC(=O)NC3CCCCC3)cc2)n1 [Example 10, N-cyclohexyl-N'-[4-(4,6-diamino-1,3,5-triazin-2-yl)phenyl]urea] | 29%
20 | CC1(C)C=Cc2cc(-c3nc(N)nc(N)n3)ccc2O1 [Example 50, 6-(2,2-dimethyl-2H-1-benzopyran-6-yl)-1,3,5-triazine-2,4-diamine] | 100%
21 | Nc1nc(N)nc(-c2ccc3ccccc3n2)n1 [Example 47, 6-(2-quinolinyl)-1,3,5-triazine-2,4-diamine] | 65%
22 | CCCCC[C@H]1CC[C@H](c2ccc(-c3nc(N)nc(N)n3)cc2)CC1 [Example 8, trans-6-[4-(4-pentylcyclohexyl)phenyl]-1,3,5-triazine-2,4-diamine] | 30%
23 | Nc1nc(N)nc(C2CN(C(c3ccccc3)c3ccccc3)C2)n1 [Example 1, 6-[1-(diphenylmethyl)-3-azetidinyl]-1,3,5-triazine-2,4-diamine] | 20%
24 | Nc1nc(N)nc(-c2ccccc2-c2ccccc2)n1 [Example 6, 6-[1,1'-biphenyl]-2-yl-1,3,5-triazine-2,4-diamine] | 95%
25 | Nc1nc(N)nc(-c2ccc(-c3ccc([N+](=O)[O-])cc3)cc2)n1 [Example 7, 6-(4'-nitro[1,1'-biphenyl]-4-yl)-1,3,5-triazine-2,4-diamine] | 100%
26 | Nc1nc(N)nc(C2COc3ccccc3O2)n1 (stereo not drawn) [Example 51, 6-(2,3-dihydro-1,4-benzodioxin-2-yl)-1,3,5-triazine-2,4-diamine] | 100%
27 | Nc1nc(N)nc(N2CCC3(CC2)OCCO3)n1 [Example 13, 6-(1,4-dioxa-8-azaspiro[4,5]dec-8-yl)-1,3,5-triazine-2,4-diamine] | 53%
28 | Nc1nc(N)nc(C23CCN(CC2)CC3)n1 [Example 56, 6-(1-azabicyclo[2.2.2]octan-4-yl)-1,3,5-triazine-2,4-diamine] | 30%
29 | Nc1nc(N)nc(-c2cnc3ccccc3c2)n1 [Example 48, 6-(3-quinolinyl)-1,3,5-triazine-2,4-diamine] | 55%
30 | Nc1nc(N)nc(-c2ccc(NC(=O)Nc3ccccc3)cc2)n1 [Example 12, N-[4-(4,6-diamino-1,3,5-triazin-2-yl)phenyl]-N'-phenyl urea] | 36%
